Experimental data from patent publication US7981903B2, “2-[2-{phenylamino}-1H-pyrrolo[2,3-D]pyrimidin-4-yl)amino] benzamide derivatives as IGF-1R inhibitors for the treatment of cancer” (GlaxoSmithKline LLC, priority 2007, dated 2011).
Values joined by “and” are separate entries in the source; they are usually repeats but may differ in a detail not shown here. Equal entries are not always repeated.

Legend:
Format in all cases: biochemical
ALK = ALK (Homo sapiens, UniProt Q9UM73); assay: ALK enzyme assay (HTRF); conditions: 0.25 nM ALK, 15.0 μM ATP, values given as pIC50 category
Protocol: The method measures the ability of the isolated enzyme to catalyse the transfer of the gamma-phosphate from ATP onto the tyrosine residue of a biotinylated synthetic peptide. The extent of tyrosine phosphorylation was measured using an anti-phosphotyrosine antibody, and quantified by homogenous time-resolved fluorescence (HTRF) assay purchased from CisBio (62TK0PEJ).
Reactions were performed in black 384-well polystyrene low volume plates in a final volume of 5 μl.
The reactions were then started by adding the substrate mix. The reactions were allowed to proceed for 120 minutes at 20° C. The reactions were then terminated by the addition of 5 μl HTRF detection mix to each well. The final concentrations of the detection reagents were: 50 mM HEPES (pH7.0); 0.1% BSA; 0.8 M KF; 20 mM EDTA; 1 mM CHAPS; TK-antibody Europium Cryptate; and 41 nM streptavidin-XL665. Assay plates were left unsealed, stacked and incubated at 20° for 60 minutes. Quantification of activity was achieved by counting in an Envision Counter (PerkinElmer).
Compounds under analysis were dissolved in Me2SO to 1.0 mM and serially diluted 1 to 3 with Me2SO through twelve dilutions. 0.05 μl of each concentration was transferred to the corresponding well of an assay plate. This creates a final compound concentration range from 0.00017 to 10 μM.
The data for dose responses were plotted as % Inhibition calculated with the data reduction formula 100*(1-(U1-C2)/(C1-C2)) versus concentration of compound where U is the unknown value, C1 is the average control value obtained for 1% DMSO, and C2 is the average control value obtained for 0.1 M EDTA. Data were fitted with a curve described by:
[formula] where A is the minimum y, B is the maximum y concentration [M], D is the slope factor, and x is the log10 of the compound.

human IGF1R (hIGF1R) = target: T1, human IGF1R (hIGF1R) (Homo sapiens, UniProt P08069); assay: TR-FRET kinase assay of purified hIGF1R; conditions: activated hIGF1R 0.5 nM, 10 μM ATP, values given as pIC50 category, read-out: IGF-1R pIC50 (converted)
T1 construct: containing amino acid residues 957-1367 of human IGF1R; made in house; host or cells: Sf9 cells (baculovirus)
Protocol: (§1) Time Resolved Fluorescence Resonance Energy Transfer (TR-FRET) assays were carried out on the exemplified compounds as follows:
(§2) Purity is determined by HPLC. The calculated molecular mass of the peptide is 2216 dalton. Tyrosine phosphorylation by human IGF1R (hIGF1R) or human IR (hIR) occurs as indicated (Y*) in the peptide sequence described. Solid peptide sample is dissolved to approximately 1 mM in DMSO, aliquoted, and stored at −20° C. until use. True peptide concentration is determined by amino acid analysis.
hIGF1R: GST-rTEV-IGF-1R(957-1367) containing amino acid residues 957-1367 of human IGF1R (as annotated by National Center for Biotechnology Information (NCBI) accession number NP_000866) is purified from a baculovirus expression system in Sf9 cells using Glutathione Sepharose 4FF column chromatography followed by Sephadex-200 size exclusion column chromatography. […] Samples, in 25 mM Tris-HCl, 250 mM NaCl, 5% glycerol, 1 mM DTT, pH 7.5, are stored at −80° C. until use.
(§3) hIGF1R: Activation of GST-rTEV-IGF-1R(957-1367) is achieved by a 4 minute incubation of hIGF1R (2.7 μM final) with 2 mM ATP in 50 mM HEPES, 20 mM MgCL2, 0.1 mg/ml BSA, at room temperature. Autophosphorylation is stopped by addition of EDTA (to 100 mM final). Aliquoted samples are flash frozen in liquid nitrogen and stored at −80° C. until use.
(§4) Assays are performed in 384-well (Greiner, Catalog No. 784076) microtiter plates. Reaction buffer (50 mM HEPES buffer, pH 7.5; 10 mM MgCL2; 3 mM DTT; 1 mM CHAPS; 0.1 mg/ml BSA) for peptide phosphorylation (10 μl volume) contained, in final concentrations, 500 nM biotinylated peptide substrate; 10 μM ATP; and purified, activated hIGF1R or hIR (0.5 nM). Compounds, titrated in DMSO, are evaluated at eleven concentrations ranging from 50 μM to 0.2 nM. […] Reactions are incubated for 1 hour at room temperature and are stopped by a 5 μl addition of EDTA (to 33 mM). A further addition of 5 μl detection reagents (for final 7 nM Streptavidin-APC (Perkin Elmer #CR^130-150), 1 nM Europium-labeled anti-phosphotyrosine monoclonal antibody (PerkinElmer #AD0067), added in reaction buffer (without DTT), is required for signal generation. After 30 minutes, signal is read on PerkinElmer Viewlux microplate imager or Wallac Victor fluorometer.
(§5) The data for compound concentration responses were plotted as % Inhibition, calculated with the data reduction formula 100*(1-[(U1-C2)/(C1-C2)]), versus concentration of compound, where • U is the unknown value, • C1 is the average control value obtained for DMSO only, and • C2 is the average control value obtained for reactions stopped with EDTA at • t=0.
(§6) Data were fitted to the curve described by: y=((Vmax*x)/(K+x)) where • Vmax is the upper asymptote and • K is the IC50.

human IR (hIR) = target: T2, human IR (hIR) (Homo sapiens, UniProt P06213); assay: TR-FRET kinase assay of purified hIR; conditions: activated hIR 0.5 nM, 10 μM ATP, values given as pIC50 category
T2 construct: containing amino acid residues 979-1382 of human IR; made in house; host or cells: Sf9 cells (baculovirus), same process as hIGF1R
Protocol: as §1, §2
hIR: GST-rTEV-IR(979-1382) containing amino acid residues 979-1382 of human IR (as annotated by NCBI accession number NP_000199) is expressed and purified by the same process as hIGF1R. […] Samples, in 25 mM Tris-HCl, 250 mM NaCl, 5% glycerol, 1 mM DTT, pH 7.5, are stored at −80° C. until use.
as §3, with “hIR:” for “hIGF1R:”, “5” for “4”, “hIR” for “hIGF1R”, “100” for “50”, “10” for “20”
as §4, §5, §6

ALK, sequence (Q9UM73 19-1620): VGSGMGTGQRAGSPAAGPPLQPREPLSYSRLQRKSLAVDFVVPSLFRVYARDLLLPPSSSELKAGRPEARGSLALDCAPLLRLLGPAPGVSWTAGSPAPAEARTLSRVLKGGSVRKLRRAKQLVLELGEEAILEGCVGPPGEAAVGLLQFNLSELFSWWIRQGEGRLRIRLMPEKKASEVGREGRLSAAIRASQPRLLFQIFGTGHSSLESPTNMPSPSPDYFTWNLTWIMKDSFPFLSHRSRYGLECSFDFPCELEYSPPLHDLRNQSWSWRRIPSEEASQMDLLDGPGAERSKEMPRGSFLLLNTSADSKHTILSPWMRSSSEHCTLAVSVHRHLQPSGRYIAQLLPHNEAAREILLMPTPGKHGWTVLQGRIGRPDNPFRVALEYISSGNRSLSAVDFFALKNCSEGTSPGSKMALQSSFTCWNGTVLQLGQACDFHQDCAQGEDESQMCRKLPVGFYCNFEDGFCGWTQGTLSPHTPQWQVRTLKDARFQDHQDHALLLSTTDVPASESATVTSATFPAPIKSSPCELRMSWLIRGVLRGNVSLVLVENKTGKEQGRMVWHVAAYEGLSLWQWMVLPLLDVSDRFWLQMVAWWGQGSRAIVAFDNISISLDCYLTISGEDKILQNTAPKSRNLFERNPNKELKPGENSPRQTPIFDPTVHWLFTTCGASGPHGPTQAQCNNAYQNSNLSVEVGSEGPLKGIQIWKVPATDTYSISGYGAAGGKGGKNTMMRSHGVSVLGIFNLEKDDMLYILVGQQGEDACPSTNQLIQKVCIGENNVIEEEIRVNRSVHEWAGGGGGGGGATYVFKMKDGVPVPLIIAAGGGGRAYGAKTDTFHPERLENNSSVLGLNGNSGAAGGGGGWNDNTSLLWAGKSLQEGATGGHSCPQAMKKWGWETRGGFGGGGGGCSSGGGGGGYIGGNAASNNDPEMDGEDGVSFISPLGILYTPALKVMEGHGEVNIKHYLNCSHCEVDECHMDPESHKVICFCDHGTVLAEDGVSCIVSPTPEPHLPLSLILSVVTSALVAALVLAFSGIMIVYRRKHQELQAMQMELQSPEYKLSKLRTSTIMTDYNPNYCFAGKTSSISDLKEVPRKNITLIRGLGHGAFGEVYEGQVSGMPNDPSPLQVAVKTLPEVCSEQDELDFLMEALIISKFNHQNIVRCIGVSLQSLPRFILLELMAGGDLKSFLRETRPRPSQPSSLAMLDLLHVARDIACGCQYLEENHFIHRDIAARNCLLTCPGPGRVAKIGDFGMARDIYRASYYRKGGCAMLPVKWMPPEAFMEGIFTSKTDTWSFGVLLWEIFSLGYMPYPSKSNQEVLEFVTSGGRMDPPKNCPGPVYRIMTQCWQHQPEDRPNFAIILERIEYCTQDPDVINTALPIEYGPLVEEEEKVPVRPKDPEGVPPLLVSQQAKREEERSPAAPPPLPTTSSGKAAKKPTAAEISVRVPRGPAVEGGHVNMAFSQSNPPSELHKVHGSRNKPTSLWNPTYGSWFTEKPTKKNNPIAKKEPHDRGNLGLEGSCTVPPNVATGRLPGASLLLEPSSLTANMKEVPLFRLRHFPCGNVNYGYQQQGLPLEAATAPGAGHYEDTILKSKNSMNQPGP
T1 sequence (P08069 957-1367): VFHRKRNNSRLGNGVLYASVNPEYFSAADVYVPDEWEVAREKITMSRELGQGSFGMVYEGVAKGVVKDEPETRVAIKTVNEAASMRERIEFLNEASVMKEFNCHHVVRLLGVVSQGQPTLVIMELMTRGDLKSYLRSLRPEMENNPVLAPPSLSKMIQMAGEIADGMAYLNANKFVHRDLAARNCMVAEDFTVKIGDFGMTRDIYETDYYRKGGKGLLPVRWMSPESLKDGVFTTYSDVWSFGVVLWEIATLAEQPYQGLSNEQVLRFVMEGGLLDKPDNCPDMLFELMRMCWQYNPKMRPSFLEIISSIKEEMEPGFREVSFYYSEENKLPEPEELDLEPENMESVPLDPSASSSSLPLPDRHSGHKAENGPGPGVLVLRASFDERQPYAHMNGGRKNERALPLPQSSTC
T2 sequence (P06213 979-1382): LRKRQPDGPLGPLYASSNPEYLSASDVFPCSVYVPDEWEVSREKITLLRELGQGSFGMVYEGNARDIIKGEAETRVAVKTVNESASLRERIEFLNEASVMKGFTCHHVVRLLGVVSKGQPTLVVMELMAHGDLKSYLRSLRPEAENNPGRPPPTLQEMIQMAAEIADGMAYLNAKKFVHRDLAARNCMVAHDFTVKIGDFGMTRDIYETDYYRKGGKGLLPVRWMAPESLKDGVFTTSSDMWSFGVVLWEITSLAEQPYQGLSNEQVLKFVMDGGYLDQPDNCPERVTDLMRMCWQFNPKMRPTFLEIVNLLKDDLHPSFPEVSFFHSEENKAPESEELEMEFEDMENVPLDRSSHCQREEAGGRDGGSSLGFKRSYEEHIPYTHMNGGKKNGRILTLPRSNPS

SMILES | IC50 (ALK) | IC50 (human IGF1R (hIGF1R)) | IC50 (human IR (hIR))
COc1cc2c(cc1Nc1nc(Nc3cccc(F)c3C(N)=O)c3cc[nH]c3n1)N(C(=O)CN1CCC(O)C1)CC2 (centres unmarked) [Example 181, 2-fluoro-6-[(2-{[1-[(3-hydroxy-1-pyrrolidinyl)acetyl]-5-(methyloxy)-2,3-dihydro-1H-indol-6-yl]amino}-1H-pyrrolo[2,3-d]pyrimidin-4-yl)amino]benzamide] | 1.26 to 3.98 nM | – | –
Cc1ccc(Nc2nc(Nc3cc(NC(=O)CN(C)C)ccc3C)nc3[nH]ccc23)c(C(N)=O)c1 [Example 34, 2-{[2-({5-[(N,N-dimethylglycyl)amino]-2-methylphenyl}amino)-1H-pyrrolo[2,3-d]pyrimidin-4-yl]amino}-5-methylbenzamide] | 5.01 to 200 nM | 5.01 to 200 nM | 1.26 to 3.98 nM
CNC(=O)c1c(F)cccc1Nc1nc(Nc2ccc3c(c2)N(C(=O)CN(C)C)CC3)nc2[nH]ccc12 [Example 130, 2-[(2-{[1-(N,N-dimethylglycyl)-2,3-dihydro-1H-indol-6-yl]amino}-1H-pyrrolo[2,3-d]pyrimidin-4-yl)amino]-6-fluoro-N-methylbenzamide] | 5.01 to 200 nM | 5.01 to 200 nM | 5.01 to 158 nM
CNC(=O)c1c(F)cccc1Nc1nc(Nc2cc3c(cc2Cl)CCN3C(=O)CN(C)C)nc2[nH]ccc12 [Example 131, 2-[(2-{[5-chloro-1-(N,N-dimethylglycyl)-2,3-dihydro-1H-indol-6-yl]amino}-1H-pyrrolo[2,3-d]pyrimidin-4-yl)amino]-6-fluoro-N-methylbenzamide] | 1.26 to 3.98 nM | 1.26 to 3.98 nM | 1.26 to 3.98 nM
CNC(=O)c1c(F)cccc1Nc1nc(Nc2cc3c(cc2OC)CCN3C(=O)CN(C)CCOC)nc2[nH]ccc12 [Example 169, 2-fluoro-N-methyl-6-[(2-{[1-{N-methyl-N-[2-(methyloxy)ethyl]glycyl}-5-(methyloxy)-2,3-dihydro-1H-indol-6-yl]amino}-1H-pyrrolo[2,3-d]pyrimidin-4-yl)amino]benzamide] | 1.26 to 3.98 nM and 5.01 to 200 nM | 1.26 to 3.98 nM | 1.26 to 3.98 nM
CNC(=O)c1c(F)cccc1Nc1nc(Nc2cc3c(cc2OC)CCN3C(=O)[C@@H]2CCCN2C)nc2[nH]ccc12 [Example 128, 2-fluoro-N-methyl-6-[(2-{[5-(methyloxy)-1-(1-methyl-L-prolyl)-2,3-dihydro-1H-indol-6-yl]amino}-1H-pyrrolo[2,3-d]pyrimidin-4-yl)amino]benzamide] | 5.01 to 200 nM | 5.01 to 200 nM | 5.01 to 158 nM
CCCN1CCC=C(c2ccc(Nc3nc(Nc4ccc(OC)cc4C(N)=O)c4cc[nH]c4n3)c(C)c2)C1 [Example 37, 5-(methyloxy)-2-[(2-{[2-methyl-4-(1-propyl-1,2,5,6-tetrahydro-3-pyridinyl)phenyl]amino}-1H-pyrrolo[2,3-d]pyrimidin-4-yl)amino]benzamide] | 1.26 to 3.98 nM | 5.01 to 200 nM | –
CNC(=O)c1ccccc1Nc1nc(Nc2cc3c(cc2OC)CCN3C(=O)CN(C)C)nc2[nH]ccc12 [Example 241, 2-[(2-{[1-(N,N-dimethylglycyl)-5-(methyloxy)-2,3-dihydro-1H-indol-6-yl]amino}-1H-pyrrolo[2,3-d]pyrimidin-4-yl)amino]-N-methylbenzamide] | 5.01 to 200 nM | – | –
CNC(=O)c1c(F)cccc1Nc1nc(Nc2cc3c(cc2OC)CCN3C(=O)CN2CCCC(O)C2)nc2[nH]ccc12 (centres unmarked) [Example 184, 2-fluoro-6-[(2-{[1-[(3-hydroxy-1-piperidinyl)acetyl]-5-(methyloxy)-2,3-dihydro-1H-indol-6-yl]amino}-1H-pyrrolo[2,3-d]pyrimidin-4-yl)amino]-N-methylbenzamide] | 1.26 to 3.98 nM | – | –
COc1cc2c(cc1Nc1nc(Nc3ccccc3C(N)=O)c3cc[nH]c3n1)N(C(=O)CN(C)C)CC2 [Example 240, 2-[(2-{[1-(N,N-dimethylglycyl)-5-(methyloxy)-2,3-dihydro-1H-indol-6-yl]amino}-1H-pyrrolo[2,3-d]pyrimidin-4-yl)amino]benzamide] | 0.251 to 1 nM | – | –

The next lines start with the values.

IC50 (ALK) | IC50 (human IGF1R (hIGF1R)) | IC50 (human IR (hIR)) | SMILES
0.251 to 1 nM | – | – | CNC(=O)c1c(F)cccc1Nc1nc(Nc2cc3c(cc2OC)CCN3C(=O)CN2CCC(O)C2)nc2[nH]ccc12 (centres unmarked) [Example 182, 2-fluoro-6-[(2-{[1-[(3-hydroxy-1-pyrrolidinyl)acetyl]-5-(methyloxy)-2,3-dihydro-1H-indol-6-yl]amino}-1H-pyrrolo[2,3-d]pyrimidin-4-yl)amino]-N-methylbenzamide]
0.251 to 1 nM | 0.251 to 1 nM | 0.251 to 1 nM | COc1cc2c(cc1Nc1nc(Nc3cccc4c3C(=O)NC4)c3cc[nH]c3n1)N(C(=O)CN1CCCC1)CCC2 [Example 201, 7-[(2-{[6-(methyloxy)-1-(1-pyrrolidinylacetyl)-1,2,3,4-tetrahydro-7-quinolinyl]amino}-1H-pyrrolo[2,3-d]pyrimidin-4-yl)amino]-2,3-dihydro-1H-isoindol-1-one]
0.251 to 1 nM | 5.01 to 200 nM | 1.26 to 3.98 nM | CNC(=O)c1c(F)cccc1Nc1nc(Nc2cc3c(cc2OC)CCN(CCF)C3)nc2[nH]ccc12 [Example 234, 2-fluoro-6-[(2-{[2-(2-fluoroethyl)-6-(methyloxy)-1,2,3,4-tetrahydro-7-isoquinolinyl]amino}-1H-pyrrolo[2,3-d]pyrimidin-4-yl)amino]-N-methylbenzamide]
0.251 to 1 nM | – | – | COc1cc2c(cc1Nc1nc(Nc3cccc(F)c3C(N)=O)c3cc[nH]c3n1)N(C(=O)CN1CCCC(O)C1)CC2 (centres unmarked) [Example 183, 2-fluoro-6-[(2-{[1-[(3-hydroxy-1-piperidinyl)acetyl]-5-(methyloxy)-2,3-dihydro-1H-indol-6-yl]amino}-1H-pyrrolo[2,3-d]pyrimidin-4-yl)amino]benzamide]
